Measurements published in publication PMC12040169 (PLOS Biology, 2025).

Test: in vitro
Conditions: human, hela cells, % viability

Compound	viability at 28.5 h, 10 µM	viability at 28.5 h, 10 µM (bulk resorufin, single well)
O=C(O)C1C2CCC(C2)C1C(=O)NCCCCc1ccccc1 (stereo not shown) [CBK286967]	91.1%	–
Cc1cc(C)nc(NC2=NC(=O)CC(C(=O)O)N2c2ccc(Cl)cc2Cl)n1 (stereo not shown) [CBK286968]	94.5%	–
COc1ccccc1C(CC(=O)O)c1ccc2c(c1)OCO2 (stereo not shown) [CBK286971]	91.2%	–
O=C(O)c1cc(NC(=O)C2CCCCC2)cc(C(=O)O)c1 [CBK286972]	103%	–
COc1ccc(CC(CC(=O)O)C(=O)Nc2ccc(OC)cc2)cc1 (stereo not shown) [CBK286975]	87.9%	–
Cn1c(CNc2ccccc2C(=O)O)c(C#N)c2ccccc21 [CBK286977]	88.7%	–
CCn1cc(C(=O)O)c(=O)c2cc(F)c(N3CCN(C(=O)c4ccc(C)cc4)CC3)cc21 [CBK286986]	99.6%	–
O=C(O)C1C2C=CC3(CN(c4ccccc4)C(=O)C13)O2 (stereo not shown) [CBK286992]	87.4%	–
Cc1ccc(C(=O)c2cccc(N3C(=O)c4ccc(C(=O)O)cc4C3=O)c2)cc1C [CBK286994]	110%	–
CC(NC(=O)/C=C\C(=O)O)c1ccc2c(c1)OCO2 (stereo not shown) [CBK286996]	93.3%	–
O=C(O)C1CC(=O)N(c2ccc(Br)cc2)C1 (stereo not shown) [CBK286998]	87.7%	–
NC(CC(=O)O)c1ccc(OCc2ccccc2)cc1 (stereo not shown) [CBK286999]	80.9%	–
O=C(O)CNC1=NC2(CCCCC2)Cc2ccccc21 [CBK287001]	78.2%	–
Cc1ccc2nc(NCC(=O)O)nc(-c3ccccc3)c2c1 [CBK287002]	84.4%	–
Cc1cccc(-n2nnnc2SC(C)C(=O)O)c1 (stereo not shown) [CBK287003]	90.1%	–
CC1=CC(C)C(CN2CC34C=CC(O3)C(C(=O)O)C4C2=O)C(C)C1 (stereo not shown) [CBK287005]	96.1%	–
O=C(O)c1cc(NCc2cccc(F)c2F)n[nH]1 [CBK287006]	93.4%	–
CCCNC(=O)Nc1ccc(Cl)c(C(=O)O)c1 [CBK287009]	85.6%	–
O=C(O)COc1ccc(N2C(=O)C(O)=C(C(=O)c3ccccc3)C2c2cccc(F)c2)cc1 (stereo not shown) [CBK287010]	96.8%	–
Cc1nn2c(=O)c(CCC(=O)O)c(C)[nH]c2c1-c1ccccc1 [CBK287011]	92.4%	–
CN1C(C(=O)O)=CC(c2ccc(F)cc2)=NS1(=O)=O [CBK287016]	97.7%	–
O=C(O)COc1ccccc1/C=C/c1cc(C(F)(F)F)[nH]c(=O)n1 [CBK287017]	103%	–
COc1cc(C(=O)O)cc2c1NC(c1ccc(C(=O)O)cc1)C1CC=CC21 (stereo not shown) [CBK287018]	90.3%	–
CC(=O)N1CCN(C(=O)C2C(C(=O)O)C2(C)C)CC1 (stereo not shown) [CBK287021]	102%	–

Compound	viability at 28.5 h, 10 µM	viability at 28.5 h, 10 µM (bulk resorufin, single well)
O=C(O)C1CCCN1C(=O)c1ccc(C#CC2(O)CCCCC2)cc1 (stereo not shown) [CBK287022]	105%	–
Cc1ccc(OCC(=O)Nc2cccc(C(=O)O)c2)cc1 [CBK287023]	110%	–
Cc1ccc(Cl)cc1N1CCN(C(=O)C2C3C=CC(C3)C2C(=O)O)CC1 (stereo not shown) [CBK287025]	117%	–
CC(C)(C)OC(=O)NCCCn1cc(C(=O)O)nn1 [CBK287028]	90.4%	–
CC(C)(C)OC(=O)NCC1(CC(=O)O)CCCCC1 [CBK287030]	93%	–
O=C(O)C1CCCCC1C(=O)NCCN1CCCCC1 (stereo not shown) [CBK287031]	91.4%	–
CCOCCN1C[C@@H](C(F)(F)F)[C@H](C(=O)O)C1 [CBK287033]	91.9%	–
COc1ccccc1C(=O)Nc1ccc(Cl)c(C(=O)O)c1 [CBK287034]	82.1%	–
O=C(O)C(=O)c1cn(Cc2ccccc2Cl)c2ccccc12 [CBK287035]	88.8%	–
CC1=CC(c2ccccc2)N2N=C(NC(=O)CCCC(=O)O)NC2=N1 (stereo not shown) [CBK287037]	81.1%	–
O=C(O)c1ccccc1C(=O)Nc1c(-c2ccccc2)nc2ccccn12 [CBK287041]	96.2%	–
CC(CC(=O)O)CC(=O)NC1CCN(Cc2ccccc2)CC1 (stereo not shown) [CBK287042]	91.4%	–
Cc1cccc(N2CCN(C(=O)C3C4CCC(O4)C3C(=O)O)CC2)c1C (stereo not shown) [CBK287044]	90%	–
O=C(O)CCC1NC(=O)N(C2CCCCC2)C1=O (stereo not shown) [CBK287046]	77.3%	–
Cc1ccc(-n2nnnc2SCC(=O)O)cc1 [CBK287048]	94.1%	–
COc1ccc(-c2nc3ccccn3c2CN2CCC(C(=O)O)CC2)cc1 [CBK287052]	88.4%	–
CC(C)C1(C)N=C(c2nc3ccccc3cc2C(=O)O)NC1=O (stereo not shown) [CBK287057]	86.1%	–
Cc1cc(=O)oc2cc(OCC(=O)Nc3cccc(C(=O)O)c3)ccc12 [CBK287058]	85%	–
O=C(O)CCC(=O)N(Cc1ccco1)C1CC(=O)N(c2ccc(F)cc2)C1=O (stereo not shown) [CBK287059]	92.1%	–
Cc1nc(=O)c(-c2ccccc2)c(C)n1CCCCCC(=O)O [CBK287060]	113%	–
CC(NC(=O)C1C2CCC(CC2)C1C(=O)O)c1ccncc1 (stereo not shown) [CBK287061]	102%	–
CCCNC(C)C(=O)Nc1c(C)csc1C(=O)O (stereo not shown) [CBK287064]	113%	–
O=C(O)c1cccc(N2C(=O)C3C4C=CC(CO)(O4)C3C2=O)c1 (stereo not shown) [CBK287066]	103%	–
O=C(O)/C=C\C(=O)Nc1ccccc1C(=O)N1CCOCC1 [CBK287067]	100%	–

Compound	viability at 28.5 h, 10 µM	viability at 28.5 h, 10 µM (bulk resorufin, single well)
O=C(NC[C@H]1CC[C@H](C(=O)O)CC1)c1cc2ccccc2[nH]1 [CBK287069]	105%	–
O=C(O)CCc1nc(-c2ccc3[nH]ccc3c2)no1 [CBK287070]	99.3%	–
CS(=O)(=O)N1CCCc2cc(C(=O)O)ccc21 [CBK287072]	93%	–
CC(=O)Nc1ccc(NC(=O)[C@H]2CCCC[C@H]2C(=O)O)cc1 [CBK287073]	99.6%	–
CCOC(=O)N1CCN(C(=O)CCC(=O)O)CC1 [CBK287075]	97.3%	–
O=C(O)CCSc1nc(-c2ccccc2)cc(=O)[nH]1 [CBK287076]	102%	–
CC(C)(C)NS(=O)(=O)c1ccc(OCC(=O)O)cc1 [CBK287077]	100%	–
Cc1c(CC(=O)O)c2c(n1Cc1ccc(F)cc1)CCCC2=O [CBK287078]	103%	–
O=C(O)c1[nH]n(-c2ccc(Cl)cc2)c(=O)c1CCO [CBK287079]	101%	–
CC1CCC(C(=O)NC(Cc2ccccc2)C(=O)O)CC1 (stereo not shown) [CBK287080]	90.5%	–
COc1ccc(OC)c(NC(=O)c2ccccc2C(=O)O)c1 [CBK287082]	86.9%	–
O=C(O)CNC(=O)CNC(=O)C12CC3CC(CC(C3)C1)C2 [CBK287083]	81.4%	–
COc1ccc(S(=O)(=O)N(C)CC(=O)O)cc1 [CBK287086]	85.9%	–
O=C(O)[C@H](Cc1ccccc1)Nc1ncnc2[nH]cnc12 [CBK287090]	87%	–
O=C(O)Cn1cc(C(=O)c2ccccc2F)c2ccccc21 [CBK287100]	–	92.7%
O=C(NCC1CCCO1)[C@H]1CCCC[C@H]1C(=O)O (stereo partly shown) [CBK287104]	88.7%	–
CC(C)CNS(=O)(=O)c1ccc(CCC(=O)O)cc1 [CBK287107]	80.9%	–
COc1ccc(OCC(=O)Nc2ccc(C(=O)O)c(Cl)c2)cc1 [CBK287108]	104%	–
Cc1nc(-c2ccccc2)nc2c1c(N)nn2CC(=O)O [CBK287109]	95.1%	–
O=C1CC(c2ccccc2)c2snc(C(=O)O)c2N1 (stereo not shown) [CBK287111]	90.5%	–
O=C(O)c1ccccc1C(=O)NCCC1=CCCCC1 [CBK287113]	87.8%	–
Cc1ccc(S(=O)(=O)N(CC(=O)O)c2ccc(C(C)C)cc2)cc1 [CBK287116]	85.3%	–
CN(C(=O)c1ccccc1C(=O)O)C1CC(C)(C)NC(C)(C)C1 [CBK287117]	98.2%	–
O=C1CC(c2ccc(C(=O)O)cc2)c2sccc2N1 (stereo not shown) [CBK287119]	91.9%	–

Compound	viability at 28.5 h, 10 µM	viability at 28.5 h, 10 µM (bulk resorufin, single well)
COc1ccc(-c2cc(C(=O)NCC(=O)O)c(C)o2)cc1OC [CBK287130]	86.7%	–
COc1ccc(C2NC(C(=O)O)CS2)cc1CN1CCOCC1 (stereo not shown) [CBK287132]	87.4%	–
CC(C)(C)c1oc(C(=O)O)cc1CN1CCCC1 [CBK287136]	84.7%	–
CN1CCN(c2cc3c(cc2F)c(=O)c(C(=O)O)cn3-c2ccc(F)cc2)CC1 [CBK287138]	78.4%	–
CCCOc1ccc(C(CC(=O)O)NS(=O)(=O)c2ccc(F)cc2)cc1 (stereo not shown) [CBK287139]	102%	–
O=C(O)c1ccc(N2CCCCS2(=O)=O)cc1Cl [CBK287142]	84.5%	–
CC(C)(C)OC(=O)N1CCN(CCC(=O)O)CC1 [CBK287143]	101%	–
COc1cccc(C(=O)N2Cc3ccccc3CC2C(=O)O)c1 (stereo not shown) [CBK287150]	102%	–
CS(=O)(=O)N(CC(=O)O)c1ccc2c(c1)OCCO2 [CBK287151]	96.6%	–
CCCNS(=O)(=O)c1cc(C(=O)O)ccc1OC [CBK287152]	98%	–
CCCCC(C(=O)O)N1C(=O)c2ccccc2C1=O (stereo not shown) [CBK287153]	101%	–
Cc1ccccc1OCC(=O)NCc1ccc(C(=O)O)cc1 [CBK287155]	104%	–
O=C(O)CNC(=O)CN1C(=O)c2cc(Cl)c(Cl)cc2C1=O [CBK287156]	92.3%	–
O=C(O)CC1C(=O)NCCN1Cc1c(F)cccc1Cl (stereo not shown) [CBK287157]	88.6%	–
CCC(NC(=O)c1ccc(C#CC2(O)CCCCC2)cc1)C(=O)O (stereo not shown) [CBK287160]	96.8%	–
CC(=O)N(C)c1ccc(NC(=O)/C=C/C(=O)O)cc1 [CBK287162]	87%	–
O=C(O)c1cccc(NCC(=O)c2ccccc2)c1 [CBK287163]	88.8%	–
O=C1c2ccccc2NC(C(=O)O)(c2ccccc2)N1c1ccccc1Cl (stereo not shown) [CBK287169]	81%	–
O=C(O)CCCNS(=O)(=O)/C=C/c1ccccc1 [CBK287170]	85.1%	–
CCOc1ccc(S(=O)(=O)Nc2ccc(C(=O)O)cc2)cc1 [CBK287171]	89.9%	–
O=C(O)c1ccc2c(c1)C(=O)N(c1cccnc1)C2=O [CBK287173]	84.3%	–
O=C(CCCc1c[nH]c2ccccc12)Nc1cccc(C(=O)O)c1 [CBK287175]	104%	–
